Results: patent US20240002470A1, “Method for separation and/or detection and/or in vitro quantification of infectious compounds in biological material” (priority 2020, published 2024)

How the values were obtained:
Type in all cases: binding
[1] = tested on: SCN; assay: Capture from blood culture on magnetic microbeads, culture on TS agar: SCN
Description: (§1) The beads, on which β2GPI and peptides derived therefrom were grafted, were used for the capture of bacteria present in human blood and highlighted by blood culture.
(§2) These blood cultures are carried out by placing a venous blood sample […] in aerobic vials of BacT/ALERT®3D type. These flasks are then incubated in an automated system at 35° C. for at least 5 days. The bottles are equipped with a colorimetric detection system with a sensor located at the base of each bottle. Carbon dioxide produced by growing bacteria changes the color of the sensor; this change in color is detected by an automated system and indicates the presence of bacterial growth: these blood cultures are said to be positive. In the BacT/ALERT®3D vials there are particles of activated carbon, which inhibit antibiotics potentially present in the blood of patients, thereby improving the detection of microorganisms. To confirm the presence of bacteria in blood cultures which have been found positive, the hospital performs a culture on blood agar. […]
(§3) To test the interaction of microbeads coated with β2GPI and the peptides derived from them, with bacteria present in the blood, 1 ml of blood culture is taken from each sample and placed in a 15 ml tube. […] The bacteria that have grown on the agar were then counted.

[2] = tested on: HCV virus (hepatitis C virus); assay: Capture of HCV virus from patient plasma on magnetic microbeads coated with pepβ2GPI, RT-PCR quantification; settings: for HCV/run copies: per run, virus captured on coated beads from plasma of patients
Description: The pepβ2GPI were grafted onto the microbeads according to the supplier's recommendations. In summary, the microbeads are suspended in phosphate buffer at a pH of 6.0. The beads are then activated, for 15 minutes, in the presence of 1-ethyl-3-(3-Dimethylaminopropyl) carbodiimide and N-hydroxysuccinimide. After washing with HCl, 2 mM, the beads are suspended in a phosphate buffer at a pH of 7.5, containing the pepβ2GPI. The concentration of pepβ2GPI in this coupling buffer is 20 mg/L; the microbeads are incubated in the buffer with gentle and constant shaking at a temperature of 25° C. for 3 hours. The microbeads are then centrifuged at 1,500 rpm and the supernatant is removed; the centrifugation pellet is suspended in the same buffer as that used for the coupling of pepβ2GPI, which forms the suspension of microbeads coated with pepβ2GPI which we want to test.
One hundred microliters of viral culture supernatant to be studied are placed in an Eppendorf tube with 900 microliters of Tris buffer at a pH of 7.5 and 10 microliters of microbeads. The tubes are shaken horizontally to mix the microbeads well, and each tube is incubated at 37° C. or at room temperature (RT=22° C.) for 30 minutes. In each tube, the microbeads are then separated from the liquid phase by means of a magnet, placed externally against the wall of the tube, and the viral RNA is extracted. The beads are brought into contact with a viral lysis buffer, included in an RNA extraction kit: QIAamp RNA viral kit, sold by QIAGEN and the viral RNA is isolated according to the seller's recommendations.
The virus used is the HCV virus (hepatitis C virus), present in the plasma of patients. The same protocol as described in example 1 was carried out.

[3] = tested on: Yeast; assay: Capture from blood culture on magnetic microbeads, culture on TS agar: yeast
Description: as §1, §2, §3

[4] = tested on: endogenous human retrovirus antigen (HERV), envelope protein of HERV-W; assay: Capture of HERV antigen from serum on ELISA-type microtiter plates
Description: The desired compound is an endogenous human retrovirus antigen (HERV: human endogenous retrovirus). Their research was carried out on serum from patients with autoimmune pathologies as well as on serum from healthy donors.
The support used is a microtiter plate of the ELISA type, with 96 wells and flat bottom, sold by the company “DYNATECH”. Four samples of serum from healthy donors and four samples from patients with autoimmune disease were used.
The serum sample is diluted ten times in 50 mM Tris-HCl buffer, pH 7.6±0.05.
100 μl of this solution are placed at the bottom of each well of the microplate.
This is then incubated at +37° C. for 90 minutes. The liquid from each well is then aspirated. Then 300 to 400 μl of phosphate buffer containing 0.01 mole/I of sodium and disodium phosphates and 0.15 mole/I of sodium chloride and having a pH of 7.00±0.05 are introduced into each well.
It is left in contact with the support for 3 minutes and the buffer is aspirated; this washing operation is carried out three times.
Next, 100 μl of a specific murine monoclonal antibody solution directed against the envelope protein of the endogenous HERV-W retrovirus is added per well.
The plate is left at 37° C. for 60 minutes.
(§4) Following this incubation, the contents of the wells of the plate are aspirated. 300 to 400 μl of phosphate buffer, described above, are introduced into each well, and after a contact time of 3 minutes, the buffer is aspirated; this washing operation is carried out three times.
as §4, with “Then, 100 μL of a solution of a polyclonal antibody recognizing the murine antibodies are added per well. The plate is left at 37° C. for 60 minutes. Following” for “Following”, “six” for “three”
100 μl of a solution of o-phenylene diamine, 2HCl in a sodium citrate buffer are added per well. It is left to incubate for 30 minutes at room temperature, then the reaction is stopped by adding to each well 50 μl of 2N H2 SO4. The absorbance at 492 nm obtained at the end of the reaction is measured using a plate reader robot.
Results in the following table are expressed in P/2N, P corresponding to the average of the absorbances obtained for a given serum and N corresponding to the average of the absorbances obtained from healthy donors, multiplied by 2.

[5] = serum 6s (patient with autoimmune pathology)
[6] = serum 45s (patient with autoimmune pathology)
[7] = serum 99s (patient with autoimmune pathology)
[8] = serum 100s (patient with autoimmune pathology)

| Molecule | % compared to β2GPI [1] [%] | % compared to β2GPI ([2]; HCV copies captured relative to β2GPI beads) | HCV/run copies [2] [copies] | % compared to β2GPI [3] [%] | P/2N [4, 5] | P/2N [4, 6] | P/2N [4, 7] | P/2N [4, 8] | P/2N ([4]; serum DS 45s (healthy donor)) | P/2N ([4]; serum DS 46s (healthy donor)) | P/2N ([4]; serum DS 60s (healthy donor)) | P/2N ([4]; serum DS 61s (healthy donor)) |
| --- | --- | --- | --- | --- | --- | --- | --- | --- | --- | --- | --- | --- |
| H-((SSLAFWK)2-K)2-K—NH2 [Peptide P11] | 101 | (86%) | 97 | 89 | 1.185 | 1.228 | 0.977 | 4.039 | 0.77 | 0.718 | 0.631 | 0.727 |
| β2GPI: plasma glycoprotein called β2-glycoprotein I, grafted on beads as the reference (protein, UniProt P02749 20-345, looked up, grafted on beads) Beta-2-glycoprotein 1: GRTCPKPDDLPFSTVVPLKTFYEPGEEITYSCKPGYVSRGGMRKFICPLTGLWPINTLKCTPRVCPFAGILENGAVRYTTFEYPNTISFSCNTGFYLNGADSAKCTEEGKWSPELPVCAPIICPPPSIPTFATLRVYKPSAGNNSLYRDTAVFECLPQHAMFGNDTITCTTHGNWTKLPECREVKCPFPSRPDNGFVNYPAKPTLYYKDKATFGCHDGYSLDGPEEIECTKLGNWSAMPSCKASCKVPVKKATVVYQGERVKIQEKFKNGMLHGDKVSFFCKNKEKKCSYTEDAQCIDGTIEVPKCFKEHSSLAFWKTDASDVKPC | 100 | – | 113 | 100 | 0.928 | 1.112 | 0.974 | 4.9 | 0.69 | 0.79 | 0.637 | 0.498 |
